In patent US20130252935A1, “Monobactams” (PFIZER INC., priority 2010, published 2013) one finds MIC data, which are given here for 12 compounds.

Structures are written as SMILES. ≈ marks a conversion by molar mass, not a printed value.

Format in all cases: cell-based
Assay [1] has as its system Pseudomonas aeruginosa UC-12120. Put plainly: minimum inhibitory concentration (MIC) testing according to CLSI guidelines, Pseudomonas aeruginosa. The settings on record: Pseudomonas aeruginosa, UC12120; UC-12120, wild-type, labeled as 1091-05; overnight incubation; lower of duplicate values; read-out: AB-MBT: Pseudomonas aeruginosa 1091-05: MIC (MstRcn). The procedure: (§1) In order to assess the compounds biological activity, the in vitro anti-bacterial activity of selected compounds described in the Examples 1-69 was evaluated by minimum inhibitory concentration (MIC) testing according to Clinical and Laboratory Standards Institute (CLSI, formerly NCCLS) guidelines. See: Clinical and Laboratory Standards Institute. Methods for Dilution Antimicrobial Susceptibility Tests for Bacteria that Grow Aerobically; Approved Standard-Eighth Edition. CLSI document M7-A8 [ISBN 1-56238-689-1]. Clinical and Laboratory Standards Institute, 940 West Valley Road, Suite 1400, Wayne, Pa. 19087-1898 USA, 2006; also Clinical and Laboratory Standards Institute. Performance Standards for Antimicrobial Susceptibility Testing; Twentieth Informational Supplement. CLSI document M100-S20 [ISBN1-56238-716-2]. Clinical and Laboratory Standards Institute.
(§2) The MIC determination is a standard laboratory method for evaluating the antibacterial activity of a compound. The MIC represents the lowest drug concentration that inhibits visible growth of bacteria following overnight incubation. […] Typically, the drug concentration range is broken down into 2-fold increments (e.g. 0.06 μg/mL, 0.12 μg/mL. 0.25 μg/mL, 0.50 μg/mL, 1.0 μg/mL, etc.) and the various drug concentrations are all individually incubated overnight with approximately the same number of bacteria. The MIC is then determined by visually inspecting the drug effect at each concentration, and identifying the lowest drug concentration that has inhibited bacterial growth as compared to the drug free control. Typically, bacteria continue to grow at drug concentrations lower than the MIC and don't grow at concentrations at and above the MIC.
(§3) The MIC values described in Table 1 below were derived from assays wherein each test compound was evaluated in duplicate. In cases where the duplicate values varied by 0-2-fold, the lower of the two values was reported below. Generally speaking, if the duplicate values varied by more than 2-fold, the assay was considered non-valid and was repeated until the variation between duplicate runs was ≦2-fold. In line with the CLSI guidelines referred to above, both control organisms and reference compounds were utilized in each MIC assay to provide proper quality control. MIC values generated with these control organisms and reference compounds were required to fall within a defined range for the assay to be considered valid and be included herein. Those skilled in the art will recognize that MIC values can and do vary from experiment to experiment. Generally speaking, it should be recognized that MIC values often vary +/−2-fold from experiment to experiment. While a single MIC is reported for each compound and each microorganism, the reader should not conclude that each compound was only tested once. Several of the compounds were subjected to multiple tests. The data reported in Table 1 is reflective of the compounds relative activity and different MICs may have been generated on these occasions in light with the guidelines described above.
(§4) The following bacterial strains were used in these MIC determinations:
1) Pseudomonas aeruginosa UC-12120: Wild-type, labeled as 1091-05;

For assay [2], the system named is Acinetobacter baumannii/haemolyticus AB-3167. Put plainly: minimum inhibitory concentration (MIC) testing according to CLSI guidelines, Acinetobacter. Particulars: Acinetobacter baumannii; multidrug-resistant clinical isolate AB-3167; overnight incubation; lower of duplicate values; read-out: AB-MBT: Acinetobacter baumanii AB-3167: MIC (MstRcnt). The procedure:
as §1, §2, §3, §4
3) Acinetobacter baumannii/haemolyticus: Multidrug-resistant clinical isolate, labeled as AB-3167.

Assay [3] concerns Klebsiella pneumoniae 1000-02. In words: minimum inhibitory concentration (MIC) testing according to CLSI guidelines, Klebsiella pneumoniae. Particulars: Klebsiella pneumoniae; ciprofloxacin-resistant, ESBL-expressing clinical isolate 1000-02; overnight incubation; lower of duplicate values; read-out: AB-MBT: Klebsiella pneumoniae 1000-02: MIC (MstRcnt). The procedure:
as §1, §2, §3, §4
2) Klebsiella pneumoniae: Ciprofloxacin-resistant isolate, expresses extended-spectrum beta-lactamases (ESBL), clinical isolate, labeled as 1000-02;

A word on the MIC: it is the lowest concentration that inhibits growth of the organism. Take `CC(C)(O/N=C(\C(=O)N[C@@H]1C(=O)N(S(=O)(=O)O)[C@@H]1CNC(=O)c1cnc(-c2cc(=O)c(O)c[nH]2)nc1)c1csc(N)n1)C(=O)O` [Example 24, 2-({[(1Z)-1-(2-amino-1,3-thiazol-4-yl)-2-({(2R,3S)-2-[({[2-(5-hydroxy-4-oxo-1,4-dihydropyridin-2-yl)pyrimidin-5-yl]carbonyl}amino)methyl]-4-oxo-1-sulfoazetidin-3-yl}amino)-2-oxoethylidene]amino}oxy)-2-methylpropanoic acid]: the MIC in assay [1] was 1 mg/L (≈ 1.5 µM); in assay [2], 2 mg/L (≈ 3 µM); in assay [3] it was 16 mg/L (≈ 24 µM).

With `Nc1nc(/C(=N/OC2(C(=O)O)CCCC2)C(=O)N[C@@H]2C(=O)N(S(=O)(=O)O)[C@@H]2CNC(=O)NCc2cc(=O)c(O)cn2O)cs1` [Example 26, 1-({[(1Z)-1-(2-amino-1,3-thiazol-4-yl)-2-({(2R,3S)-2-[({[(1,5-dihydroxy-4-oxo-1,4-dihydropyridin-2-yl)methyl]carbamoyl}amino)methyl]-4-oxo-1-sulfoazetidin-3-yl}amino)-2-oxoethylidene]amino}oxy)cyclopentanecarboxylic acid], the MIC in assay [1] turned out to be 0.125 mg/L (≈ 0.19 µM); in assay [2], 0.25 mg/L (≈ 0.38 µM); in assay [3], 0.125 mg/L (≈ 0.19 µM).

As to `Nc1nc(/C(=N/OC2(C(=O)O)CCOCC2)C(=O)N[C@@H]2C(=O)N(S(=O)(=O)O)[C@@H]2CNC(=O)NCc2cc(=O)c(O)cn2O)cs1` [Example 27, 4-({[(1Z)-1-(2-amino-1,3-thiazol-4-yl)-2-({(2R,3S)-2-[({[(1,5-dihydroxy-4-oxo-1,4-dihydropyridin-2-yl)methyl]carbamoyl}amino)methyl]-4-oxo-1-sulfoazetidin-3-yl}amino)-2-oxoethylidene]amino}oxy)tetrahydro-2H-pyran-4-carboxylic acid], the MIC in assay [1] stood at 1 mg/L (≈ 1.48 µM); in assay [2], 2 mg/L (≈ 2.96 µM); in assay [3] it was 1 mg/L (≈ 1.48 µM).

With `Nc1nc(/C(=N/OC2(C(=O)O)CCCCC2)C(=O)N[C@@H]2C(=O)N(S(=O)(=O)O)[C@@H]2CNC(=O)NCc2cc(=O)c(O)cn2O)cs1` [Example 28, 1-({[(1Z)-1-(2-amino-1,3-thiazol-4-yl)-2-({(2R,3S)-2-[({[(1,5-dihydroxy-4-oxo-1,4-dihydropyridin-2-yl)methyl]carbamoyl}amino)methyl]-4-oxo-1-sulfoazetidin-3-yl}amino)-2-oxoethylidene]amino}oxy)cyclohexanecarboxylic acid], the MIC in assay [1] is 1 mg/L (≈ 1.49 µM); in assay [2], 1 mg/L (≈ 1.49 µM); in assay [3], 0.5 mg/L (≈ 0.743 µM).

As to `CC(C)(O/N=C(\C(=O)N[C@@H]1C(=O)N(S(=O)(=O)O)[C@@H]1CNC(=O)NCc1cc(=O)c(O)cn1O)c1nc(N)sc1Cl)C(=O)O` [Example 29, 2-({[(1Z)-1-(2-amino-5-chloro-1,3-thiazol-4-yl)-2-({(2R,3S)-2-[({[(1,5-dihydroxy-4-oxo-1,4-dihydropyridin-2-yl)methyl]carbamoyl}amino)methyl]-4-oxo-1-sulfoazetidin-3-yl}amino)-2-oxoethylidene]amino}oxy)-2-methylpropanoic acid], the MIC in assay [1] was determined as 0.25 mg/L (≈ 0.375 µM); in assay [2] it was 0.5 mg/L (≈ 0.75 µM); in assay [3], 1 mg/L (≈ 1.5 µM).

Regarding `Nc1nc(/C(=N/OC2(C(=O)O)CCC2)C(=O)N[C@@H]2C(=O)N(S(=O)(=O)O)[C@@H]2CNC(=O)NCc2cc(=O)c(O)cn2O)cs1` [Example 30, 1-({[(1Z)-1-(2-amino-1,3-thiazol-4-yl)-2-({(2R,3S)-2-[({[(1,5-dihydroxy-4-oxo-1,4-dihydropyridin-2-yl)methyl]carbamoyl}amino)methyl]-4-oxo-1-sulfoazetidin-3-yl}amino)-2-oxoethylidene]amino}oxy)cyclobutanecarboxylic acid], the MIC in assay [1] worked out at 0.125 mg/L (≈ 0.194 µM); in assay [2], 0.25 mg/L (≈ 0.388 µM); in assay [3], 0.125 mg/L (≈ 0.194 µM).

`CC(C)C[C@H](O/N=C(\C(=O)N[C@@H]1C(=O)N(S(=O)(=O)O)[C@@H]1CNC(=O)NCc1cc(=O)c(O)cn1O)c1csc(N)n1)C(=O)O` [Example 31, (2S)-2-({[(1Z)-1-(2-amino-1,3-thiazol-4-yl)-2-({(2R,3S)-2-[({[(1,5-dihydroxy-4-oxo-1,4-dihydropyridin-2-yl)methyl]carbamoyl}amino)methyl]-4-oxo-1-sulfoazetidin-3-yl}amino)-2-oxoethylidene]amino}oxy)-4-methylpentanoic acid]: the results for the MIC in assay [1], in assay [2] and in assay [3] were 1 mg/L (≈ 1.51 µM), 0.5 mg/L (≈ 0.757 µM) and 0.5 mg/L (≈ 0.757 µM), respectively.

In the case of `Nc1nc(/C(=N/O[C@@H](Cc2ccccc2)C(=O)O)C(=O)N[C@@H]2C(=O)N(S(=O)(=O)O)[C@@H]2CNC(=O)NCc2cc(=O)c(O)cn2O)cs1` [Example 32, (2S)-2-({[(1Z)-1-(2-amino-1,3-thiazol-4-yl)-2-({(2R,3S)-2-[({[(1,5-dihydroxy-4-oxo-1,4-dihydropyridin-2-yl)methyl]carbamoyl}amino)methyl]-4-oxo-1-sulfoazetidin-3-yl}amino)-2-oxoethylidene]amino}oxy)-3-phenylpropanoic acid], the MIC in assay [1], in assay [2] and in assay [3] was 1 mg/L (≈ 1.44 µM) throughout.

In the case of `CC(C)(O/N=C(\C(=O)N[C@@H]1C(=O)N(S(=O)(=O)O)[C@@H]1CNC(=O)NCc1cc(=O)c(O)cn1O)c1nsc(N)n1)C(=O)O` [Example 33, 2-({[(1Z)-1-(5-amino-1,2,4-thiadiazol-3-yl)-2-({(2R,3S)-2-[({[(1,5-dihydroxy-4-oxo-1,4-dihydropyridin-2-yl)methyl]carbamoyl}amino)methyl]-4-oxo-1-sulfoazetidin-3-yl}amino)-2-oxoethylidene]amino}oxy)-2-methylpropanoic acid], the MIC worked out at 0.25 mg/L (≈ 0.395 µM) in assay [1], 0.5 mg/L (≈ 0.789 µM) in assay [2] and 2 mg/L (≈ 3.16 µM) in assay [3].

For the compound `C[C@H](O/N=C(\C(=O)N[C@@H]1C(=O)N(S(=O)(=O)O)[C@@H]1CNC(=O)NCc1cc(=O)c(O)cn1O)c1nc(N)sc1Cl)C(=O)O` [Example 34, (2S)-2-({[(1Z)-1-(2-amino-5-chloro-1,3-thiazol-4-yl)-2-({(2R,3S)-2-[({[(1,5-dihydroxy-4-oxo-1,4-dihydropyridin-2-yl)methyl]carbamoyl}amino)methyl]-4-oxo-1-sulfoazetidin-3-yl}amino)-2-oxoethylidene]amino}oxy)propanoic acid], the MIC in assay [1] was 0.125 mg/L (≈ 0.191 µM); in assay [2], 0.25 mg/L (≈ 0.383 µM); in assay [3], 0.5 mg/L (≈ 0.766 µM).

Regarding `Cn1cc(O)c(=O)cc1C(=O)NC[C@@H]1[C@H](NC(=O)/C(=N\OC(C)(C)C(=O)O)c2csc(N)n2)C(=O)N1S(=O)(=O)O` [Example 35, 2-({[(1Z)-1-(2-amino-1,3-thiazol-4-yl)-2-{[(2R,3S)-2-({[(5-hydroxy-1-methyl-4-oxo-1,4-dihydropyridin-2-yl)carbonyl]amino}methyl)-4-oxo-1-sulfoazetidin-3-yl]amino}-2-oxoethylidene]amino}oxy)-2-methylpropanoic acid], the MIC in assay [1] was found to be 4 mg/L (≈ 6.65 µM); in assay [2], 0.5 mg/L (≈ 0.831 µM); in assay [3] it was 0.25 mg/L (≈ 0.416 µM).

In the case of `CC(C)(O/N=C(\C(=O)N[C@@H]1C(=O)N(S(=O)(=O)O)[C@@H]1CNC(=O)CNC(=O)c1cc(=O)c(O)cn1O)c1csc(N)n1)C(=O)O` [Example 36, 2-({[(1Z)-1-(2-amino-1,3-thiazol-4-yl)-2-({(2R,3S)-2-[({N-[(1,5-dihydroxy-4-oxo-1,4-dihydropyridin-2-yl)carbonyl]glycyl}amino)methyl]-4-oxo-1-sulfoazetidin-3-yl}amino)-2-oxoethylidene]amino}oxy)-2-methylpropanoic acid], the MIC in assay [1] came to 0.125 mg/L (≈ 0.189 µM); in assay [2], 0.25 mg/L (≈ 0.378 µM); in assay [3] it was 1 mg/L (≈ 1.51 µM).
